Drawing on ChEMBL document CHEMBL2331300, “Inhibition of enterovirus 71 infections and viral IRES activity by Fructus gardeniae and geniposide” (2013), this text covers Survival, Activity and inhibition for four compounds.

Experiment [1] relates to Enterovirus A71. Briefly: Antiviral activity against EV71 infected in human RD cells assessed as cell survival rate at 1 to 2 mg/ml after 24 hrs by WST-1 assay. In kind it is functional. (Tetrazolium dyes change colour on reduction, which living cells bring about.)
Experiment [2] has as its system Enterovirus A71. Briefly: Antiviral activity against EV71 infected in human RD cells assessed as viral RNA transcript level at 2 mg/ml treated 24 hrs prior to infection measured after 24 hrs by real time RT-PCR analysis. In kind it is functional. A general note: In qPCR the cycle at which signal appears reflects the starting amount.
Experiment [3] deals with Enterovirus A71. Briefly: Antiviral activity against EV71 infected in human RD cells assessed as viral RNA transcript level at 1 mg/ml treated 24 hrs prior to infection measured after 24 hrs by real time RT-PCR analysis. It is filed as functional.
For experiment [4], the system named is Enterovirus A71. Briefly: Antiviral activity against EV71 infected in human RD cells assessed as inhibition of viral infection at 2 mg/ml treated 24 hrs prior to infection measured after 72 hrs by WST-1 assay. It is filed as functional. The conditions noted are these: Enterovirus A.
The test system of experiment [5] is RD. The experiment can be described thus: Inhibitory activity of EMCV IRES co-transfected with EV71 5' UTR in human RD cells at 2 mg/ml after 24 hrs by luciferase reporter gene assay. It is filed as cell-based. The conditions noted are these: Encephalomyocarditis virus. (Reporter assays use an easily measured gene product as a stand-in for the process of interest.)

For experiment [6], the system named is RD. The experiment can be described thus: Inhibitory activity of EV71 IRES co-transfected with EMCV IRES in human RD cells at 2 mg/ml after 24 hrs by luciferase reporter gene assay. As to conditions: Enterovirus A71. It is filed as cell-based.

Turning to `COC(=O)C1=CO[C@@H](O)[C@@H]2C(CO)=CC[C@H]12` [GENIPIN], in the experiment with Enterovirus A71 [1], the Survival entry is recorded as “>=80%”.

The inhibition is the percentage by which the read-out fell short of the control. For the compound `COC(=O)C1=CO[C@@H](O[C@@H]2O[C@H](CO)[C@@H](O)[C@H](O)[C@H]2O)[C@@H]2C(CO)=CC[C@H]12` [GENIPOSIDE], the figures for the Activity with Enterovirus A71 [2] and in the experiment with Enterovirus A71 [3] were 20% and 60%, respectively. Moreover, the Survival entry with Enterovirus A71 [1] is reported as “>=80%”. The inhibition at 2000 µg/mL with Enterovirus A71 [4] came out at 80%. Also, the inhibition with RD [5] and in the experiment on RD [6] was 50% each time.

For the compound `O=C(O)C1=CO[C@@H](O[C@@H]2O[C@H](CO)[C@@H](O)[C@H](O)[C@H]2O)[C@@H]2C(CO)=CC[C@H]12` [GENIPOSIDIC ACID], in the experiment on Enterovirus A71 [1], the Survival result is given as “>=80%”.

For the compound `CC(/C=C/C=C(\C)C(=O)O[C@@H]1O[C@H](CO[C@@H]2O[C@H](CO)[C@@H](O)[C@H](O)[C@H]2O)[C@@H](O)[C@H](O)[C@H]1O)=C\C=C\C=C(C)\C=C\C=C(/C)C(=O)O[C@@H]1O[C@H](CO[C@@H]2O[C@H](CO)[C@@H](O)[C@H](O)[C@H]2O)[C@@H](O)[C@H](O)[C@H]1O` [CROCIN], the Survival result in the experiment with Enterovirus A71 [1] is on record as “>=80%”.
